In EP0470325A1, “Composition and method to keep under control the reproduction rate of vertebrate animals by means of a composition containing peripheral dopamine agonists” (priority 1990, dated 1992):
Read-outs that look alike come from different tables or passages of the source.

Tests used:
pregnant rats = experiment: gestation of treated pregnant rats; type: in vivo; settings: 25 mcg/kg b.w./day per os, control rats had normal delivery
young female rats = experiment: onset of sexual maturity in young female rats at impuberal stage; type: in vivo; settings: 25 mcg/kg body weight/day per os
rats = settings: oral route, cited from earlier work
mice = settings: oral route, cited from earlier work
[1] = system: adult female rats (Sprague Dawley); experiment: pup weight and starvation during lactation of treated mother rats; type: in vivo
Description: 15 adult female rats (Sprague Dawley) at their second delivery were randomly divided into 3 groups of 5 animals each. One group served as control, the other two groups were treated with different dosages of cabergoline: animals of the former group received it at the dose of 25 mcg/kg b.w./day; animals of the latter one received it at the dose of 100 mcg/kg b.w./day, starting from the day following the delivery.
Cabergoline was administered with a pellet of standard feed for breeding rats (Altromin MT@ of the firm Rieper, Bolzano). After complete consumption of the medicated pellet, food and water were made available "ad libitum".
At the dose of 100 mcg/kg b.w./day 100% of pups starved already within the first week of lactation (see Table 1).

prolactin incretion = experiment: inhibiting action on prolactin incretion after a single oral dose; type: in vivo; settings: single oral dose of 100 mcg/kg b.w., female rats, time after treatment
Description: At a single oral dose of 100 micrograms per kg body weight (100 mcg/kg b.w.) in female rats, the inhibiting action on the prolactin incretion remains remarkably high more than 72 hours after treatment.

adult female rats = experiment: fertility of adult female rats treated before mating; type: in vivo; settings: 25 mcg/kg b.w./day per os for 10 days before mating

## C=CCN1C[C@H](C(=O)N(CCCN(C)C)C(=O)NCC)C[C@@H]2c3cccc4[nH]cc(c34)C[C@H]21 [cabergoline, 1-ethyl-3-(3'-dimethylaminopropyl)-3-(6'-allylergoline-8'β-carbonyl)-urea]
Pregnant rats
  gestation: interrupted their gestation after about ten days
Young female rats
  onset of the sexual maturity: remarkably delayed
rats; female rats (second value of 'respectively')
  LD50: 350 mg/kg b.w.
rats; male rats (first value of 'respectively')
  LD50: 400 mg/kg b.w.
mice; female mice
  LD50 (Lethal Dose 50): 200 mg/kg b.w.
mice; male mice
  LD50 (Lethal Dose 50): 350 mg/kg b.w.
[1]; 25 mcg/kg b.w./day to the mother, 7th day of lactation, mean ± SD
  Pups mean weight (in grams) at lactation days 7th: 7.9 ±1.6 grams
[1]; 25 mcg/kg b.w./day to the mother, 14th day of lactation, mean ± SD
  Pups mean weight (in grams) at lactation days 14th: 10.5 ±0.5 grams
[1]; 25 mcg/kg b.w./day to the mother, 14th day of lactation, of 63 pups
  dead pups: 40
[1]; 25 mcg/kg b.w./day to the mother, 21st day of lactation, mean ± SD
  Pups mean weight (in grams) at lactation days 21st: 14.7 ±0.7 grams
[1]; 25 mcg/kg b.w./day to the mother, at the 7th, 14th and 21st day of lactation
  body weight increase of the pups: remarkably reduced
[1]; 25 mcg/kg b.w./day to the mother, within the second week of lactation
  pups starved: about 60%
[1]; 100 mcg/kg b.w./day to the mother, 7th day of lactation, of 65 pups
  dead pups: - (65 dead)
[1]; 100 mcg/kg b.w./day to the mother, within the first week of lactation
  pups starved: 100%
Prolactin incretion
  time for which the inhibiting action on the prolactin incretion remains remarkably high: more than 72 hours
Adult female rats
  fertility: completely inhibited
